Measured values as given in patent US20190105367A1, “ANTIMICROBIAL 4-OXOQUINOLIZINES” (Emergent Product Development Gaithersburg Inc., priority 2011, published 2019).
Values after ≈ are worked out from the molar mass of the structure shown. Values joined by “and” are separate entries in the source; they are usually repeats but may differ in a detail not shown here. Equal values may be shown once. Read-outs that look alike come from different tables or passages of the source.

Key:
A. baumannii A387 [1] = test: Preliminary MBC without and with sub-inhibitory polymyxin B (Example 4); format: cell-based, Acinetobacter baumannii
A. baumannii A473 = test: MIC without and with sub-inhibitory polymyxin B (Example 4); format: cell-based, Acinetobacter baumannii
[2] = test system: Acinetobacter sp. (H064200250); test: Preliminary MBC without and with sub-inhibitory polymyxin B (Example 4); format: cell-based; conditions: preliminary MBC
Experimental: The plates were incubated for 18-20 hours at 37° C. The MBC was read as the lowest concentration at which colony growth was ca. 90% less than the positive control (i.e. usually where single colonies or no colonies were observed).

A. baumannii A387 [3] = test: MIC without and with sub-inhibitory polymyxin B (Example 4); format: cell-based, Acinetobacter baumannii
[4] = test system: GN48 Klebsiella pneumoniae NCTC 13443 NDM-1-β-lactamase producing isolate; test: Chequerboard synergy with polymyxin B, FICI (Example 6); format: cell-based
Text: (§1) A chequerboard technique was used to identify possible synergistic or antagonistic interactions between the 4-oxoquinolizines compounds, levofloxacin and polymyxin B. Levofloxacin was included as a control. […] Final dilutions were made in Mueller-Hinton broth, the specific test medium used for MIC determinations according to CLSI guidelines (CLSI. Methods for Dilution Antimicrobial Susceptibility Tests for Bacteria That Grow Aerobically; Approved Standard-Eighth Edition (2009). CLSI Document M07-A8. CLSI, Wayne, Pa. 19087-1898, USA.). The test medium used was a cation-adjusted Mueller-Hinton Broth II (Becton Dickinson UK Ltd., Oxford Science Park, Oxford, UK, OX4 4DQ).
(§2) The compounds 2, 33 and 35, as well as levofloxacin were tested in combination with polymyxin B on the following isolates: GN31 Acinetobacter baumannii—antibiotic susceptible clinical isolate, GN52 Acinetobacter baumannii—levofloxacin resistant clinical isolate, GN56 Acinetobacter baumannii—levofloxacin resistant clinical isolate, GN48 Klebsiella pneumoniae—NCTC 13443—NDM-1-metallo-β-lactamase and GN10 Pseudomonas aeruginosa—ATCC 27853—antibiotic susceptible reference isolate. All isolates are from the collection maintained at Quotient Bioresearch Ltd., Cambridge, UK.
(§3) The MIC values for the compounds and polymyxin B and levofloxacin were determined by broth microdilution following CLSI guidelines, and the MICs of agents in combination were determined as described by Pillai et. al (Pillai S K, Moellering R C Jr, Eliopoulis G M; Antimicrobial Combinations in Antibiotics in Laboratory Medicine 5th Edition (V. Lorian Ed) (2005) p 365-440). Initial MIC results were used to determine the microtiter plate patterns for the chequerboards. A suitable doubling dilution concentration range was selected such that the combination antibiotic range was at least two concentrations above and four concentrations below the MIC for each isolate. A fixed range of 0.008 to 8 mg/L was tested for polymyxin B except in the case of A. baumannii GN31 where a range of 0.004 to 4 mg/L was tested when in combination with the compounds 2, 33 and 35 as well as levofloxacin.
(§4) From the raw data, fractional inhibitory concentration indices (FICI) were determined for the compounds of the invention and levofloxacin together with polymyxin B for each isolate as follows:
(§5) FICX=concentration of the combination antibiotic in a particular row MIC of the combination drug alone
(§6) FICY=MIC of polymyxin B in combination[…]MIC of the polymyxin B alone
(§7) Additionally isobolograms were created to represent the same data visually. Here, the MIC of polymyxin B was plotted against every concentration of the combination antibiotic up to the MIC.

[5] = test system: GN56 Acinetobacter baumannii levofloxacin resistant clinical isolate; test: as above; format: cell-based
Text: as §1, §2, §3, §4, §5, §6, §7

[6] = test system: GN52 Acinetobacter baumannii levofloxacin resistant clinical isolate; test: as above; format: cell-based
Text: as §1, §2, §3, §4, §5, §6, §7

[7] = test system: GN31 Acinetobacter baumannii antibiotic susceptible isolate; test: as above; format: cell-based
Text: as §1, §2, §3, §4, §5, §6, §7

[8] = Acinetobacter baumannii, A387, A. baumannii A387, +0.06 μg/ml PB, 2nd experiment, read-out: MBC
[9] = A. baumannii A473, +0.06 μg/ml PB, 2nd experiment
[10] = Acinetobacter, Acinetobacter spp. H064200250 (OXA51), +[…] PB, 2nd experiment, read-out: MBC
[11] = A. baumannii A387, +0.06 μg/ml PB, 2nd experiment
[12] = A. baumannii A387, ratio, PB 0.06 μg/ml, 1st experiment
[13] = in combination with polymyxin B
[14] = polymyxin B with the named antibiotic
[15] = Acinetobacter spp. H064200250 (OXA51), +[…] PB, 2nd experiment
[16] = A. baumannii A387, +0.06 μg/ml polymyxin B, 1st experiment
[17] = A. baumannii A387, without PB, 2nd experiment
[18] = A. baumannii A387, without polymyxin B, 1st experiment

With `C[C@H]1COc2c(N3CCN(C)CC3)c(F)cc3c(=O)c(C(=O)O)cn1c23` [Levofloxacin, reference compound] the MBC (A. baumannii A387 [1]; [8]) was 4 µg/mL (≈ 11.1 µM), the “MIC without PB/MIC + PB” value (A. baumannii A473; [9]) was 1 and the MBC [2, 10] was 8 µg/mL (≈ 22.1 µM). For the same compound, the “MIC without PB/MIC + PB” value (A. baumannii A387 [3]; [11]) was 1, the “MIC without PB/MIC + PB” value (A. baumannii A387 [3]; [12]) was 1 and the “Combination drug MIC alone” value [4] was 64 µg/mL. The FICx [4] was 0.13, the FICy [4] was 1.00 and the FICI ([4]; combination with polymyxin B) was 1.13. For the same compound, the Synergy ([4]; combination with polymyxin B) was “Indifferent (indifference (FICI 0.76 to 2.75))”, the “Combination drug concentration in combination” value (“Combination drug concentration” below) [4, 13] was 8 mg/L and the “Polymyxin B MIC in combination” value [4, 14] was 0.5 µg/mL. For the same compound, the “Combination drug MIC alone” value [5] was 32 µg/mL, the FICx [5] was 0.13 and the FICy [5] was 1.00. The FICI ([5]; combination with polymyxin B) was 1.13, the Synergy ([5]; combination with polymyxin B) was “Indifferent (indifference (FICI 0.76 to 2.75))” and the “Combination drug concentration” value [5, 13] was 4 mg/L. The “Polymyxin B MIC in combination” value [5, 14] was 0.5 µg/mL, the “Combination drug MIC alone” value [6] was 8 µg/mL and the FICx [6] was 0.13. For the same compound, the FICy [6] was 1.00, the FICI ([6]; combination with polymyxin B) was 1.13 and the Synergy ([6]; combination with polymyxin B) was “Indifferent (indifference (FICI 0.76 to 2.75))”. For the same compound, the “Combination drug concentration” value [6, 13] was 1 mg/L, the “Polymyxin B MIC in combination” value [6, 14] was 0.5 µg/mL and the “Combination drug MIC alone” value [7] was 0.06 µg/mL. It also gave an FICx [7] of 0.13, an FICy [7] of 1.00 and an FICI ([7]; combination with polymyxin B) of 1.13. The Synergy ([7]; combination with polymyxin B) was “Indifferent (indifference (FICI 0.76 to 2.75))”, the “Combination drug concentration” value [7, 13] was 0.008 mg/L and the “Polymyxin B MIC in combination” value [7, 14] was 0.5 µg/mL.

Work on `C[C@@H](O)[C@H]1C(=O)N2C(C(=O)O)=C(S[C@@H]3CN[C@H](C(=O)N(C)C)C3)[C@H](C)[C@H]12` [Meropenem] yielded an MBC (A. baumannii A387 [1]; [8]) of 2 µg/mL (≈ 5.22 µM), an MBC (A. baumannii A387 [1]; Acinetobacter baumannii, A387, read-out: MBC +0.06 μg/ml PB, A. baumannii A387, +0.06 μg/ml polymyxin B, 1st experiment) of 1 µg/mL and an MIC (A. baumannii A473; Acinetobacter baumannii, A473, A. baumannii A473, +0.06 μg/ml PB, 2nd experiment, read-out: MIC) of 2 µg/mL (≈ 5.22 µM). For the same compound, the MBC [2, 10] was 0.25 µg/mL (≈ 0.652 µM), the MBC ([2]; Acinetobacter, read-out: MBC +[…] PB, Acinetobacter spp. H064200250, +[…] polymyxin B, 1st experiment) was 1 µg/mL (≈ 2.61 µM) and the MIC (A. baumannii A387 [3]; Acinetobacter baumannii, A387, read-out: MIC +0.06 μg/ml PB, A. baumannii A387, +0.06 μg/ml polymyxin B, 1st experiment) was 1 µg/mL.

With `COc1c(N2C[C@@H]3CCCN[C@@H]3C2)c(F)cc2c(=O)c(C(=O)O)cn(C3CC3)c12` [Moxifloxacin] the MBC (A. baumannii A387 [1]; [11]) was 8 µg/mL (≈ 19.9 µM), the “MIC without PB/MIC + PB” value (A. baumannii A473; [9]) was 1 and the MBC [2, 15] was 16 µg/mL (≈ 39.9 µM). The “MIC without PB/MIC + PB” value (A. baumannii A387 [3]; [11]) was 1 and the “MIC without PB/MIC + PB” value (A. baumannii A387 [3]; [12]) was 1.

Polymyxin B [reference compound] was tested, and the MBC (A. baumannii A387 [1]; [11]) was 0.25 µg/mL, the “MBC +0.06 μg/ml PB” value (A. baumannii A387 [1]; [16]) was 0.25 µg/mL and the MBC (A. baumannii A387 [1]; [17]) was 0.25 µg/mL. The “MBC without PB” value (A. baumannii A387 [1]; [18]) was 0.25 µg/mL, the MIC (A. baumannii A473; [9]) was 0.25 µg/mL and the “MIC without PB/MIC + PB” value (A. baumannii A473; [9]) was 1. The MIC (A. baumannii A473; A. baumannii A473, without PB, 2nd experiment) was 0.25 µg/mL, the “MIC read with alamar blue” value (A. baumannii A473; A. baumannii A473, without PB, value in parentheses, 2nd experiment) was 2 µg/mL and the “MIC without PB” value (A. baumannii A473; A. baumannii A473, without polymyxin B, 1st experiment) was 1 µg/mL. For the same compound, the MBC [2, 15] was 0.25 µg/mL, the MBC ([2]; Acinetobacter spp. H064200250 (OXA51), without PB, 2nd experiment) was 0.25 µg/mL and the “MBC +[…] PB” value ([2]; Acinetobacter spp. H064200250, +[…] polymyxin B, 1st experiment) was 0.5 µg/mL. The “MBC without PB” value ([2]; Acinetobacter spp. H064200250, without polymyxin B, 1st experiment) was 0.5 µg/mL, the MIC (A. baumannii A387 [3]; [11]) was ≤ 0.125 µg/mL and the “MIC without PB/MIC + PB” value (A. baumannii A387 [3]; [11]) was ≥2. For the same compound, the “MIC read with alamar blue” value (A. baumannii A387 [3]; A. baumannii A387, +0.06 μg/ml PB, value in parentheses, 2nd experiment) was 0.25 µg/mL, the “MIC +0.06 μg/ml PB” value (A. baumannii A387 [3]; [16]) was 0.25 µg/mL and the “MIC without PB/MIC + PB” value (A. baumannii A387 [3]; [12]) was 1. For the same compound, the MIC (A. baumannii A387 [3]; [17]) was 0.25 µg/mL, the “MIC without PB” value (A. baumannii A387 [3]; [18]) was 0.25 µg/mL and the “Polymyxin B MIC alone” value [4] was 0.5 µg/mL. For the same compound, the “Polymyxin B MIC alone” value [5] was 0.5 µg/mL, the “Polymyxin B MIC alone” value [6] was 0.5 µg/mL and the “Polymyxin B MIC alone” value [7] was 0.25 µg/mL and 0.5 µg/mL.
